{"source": "paper PMC12027443", "about": "“Surface Plasmon Resonance (SPR) for the Binding Kinetics Analysis of Synthetic Cannabinoids: Advancing CB1 Receptor Interaction Studies” (International Journal of Molecular Sciences, 2025)", "key": {"[1]": {"system": "mice", "design": "method as in PMID 40180269", "settings": "cited from earlier work"}, "[2]": {"system": "mice", "design": "method as in PMID 40180269", "settings": "hypothermia, motor suppression, catalepsy; ranking among 4F-ABUTINACA, JWH-018, SDB-005; cited from earlier work"}, "[3]": {"system": "mice", "design": "method as in PMID 40180269", "settings": "ranking among 4F-ABUTINACA, JWH-018, SDB-005; cited from earlier work"}, "[4]": {"biological_target": "T1, CB1 receptor (Homo sapiens, UniProt P21554)", "T1 sequence (P21554 whole entry)": "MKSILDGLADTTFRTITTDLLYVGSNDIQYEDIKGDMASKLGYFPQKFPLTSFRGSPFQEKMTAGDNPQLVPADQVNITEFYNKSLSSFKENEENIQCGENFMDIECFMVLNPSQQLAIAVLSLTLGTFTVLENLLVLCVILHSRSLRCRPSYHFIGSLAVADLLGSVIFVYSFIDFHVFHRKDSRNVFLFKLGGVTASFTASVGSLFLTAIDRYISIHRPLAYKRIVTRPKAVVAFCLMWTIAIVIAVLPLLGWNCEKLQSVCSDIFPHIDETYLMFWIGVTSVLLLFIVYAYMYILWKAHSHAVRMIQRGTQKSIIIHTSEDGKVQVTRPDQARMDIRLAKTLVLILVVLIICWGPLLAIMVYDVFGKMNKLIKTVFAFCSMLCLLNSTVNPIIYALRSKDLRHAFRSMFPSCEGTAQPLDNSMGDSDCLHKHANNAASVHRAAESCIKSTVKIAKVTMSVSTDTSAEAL", "design": "method as in PMID 40180269", "settings": "SPR affinity assessment, earlier study, cited from earlier work"}, "[5]": {"biological_target": "T1, CB1 receptor", "assay": "Surface Plasmon Resonance (SPR) affinity assay, CB1 protein immobilized on CM5 chip (Biacore T200)", "format": "binding", "procedure": "The ligand immobilization was conducted in four steps: ligand pre-enrichment, activation, coupling, and blocking. To prepare the 1.05× PBS-P buffer, it was diluted from the 10× PBS-P buffer. For ligand pre-enrichment, the Biacore T200 (cytiva, Marlborough, MA, USA; manufactured in Sweden) pre-enrichment program was employed. The 300 μg/mL protein stock solution was diluted to a final concentration of 15 μg/mL using 10 mM sodium acetate solutions at pH 4.0, 4.5, 5.0, and 5.5, respectively. The ligand was flowed over the surface of a blank chip at a flow rate of 30 μL/min to assess the effect of electrostatic adsorption. Based on the response difference and slope, the optimal coupling pH of 4.0 was selected. For activation, the Biacore T200 manual coupling program was used. The carboxylic acid groups on the chip surface were activated by injecting a 1:1 mixture of EDC and NHS from the amino-coupling kit at a flow rate of 10 μL/min for 900 s. During the coupling step, the 300 μg/mL protein stock solution was diluted 10-fold to 30 μg/mL using sodium acetate at pH 4.0. […]\nFor solvent correction, eight solvent correction points were established, with correction cycles performed at the beginning, end, and every 30 samples during the experiment. […] The system continuously monitored and recorded the sensorgram of the interaction between the sample and the CB1 protein in real time. […]"}, "[6]": {"biological_target": "T1, CB1 receptor", "design": "method as in PMID 31021521", "settings": "read-out: βarr2 Recruitment Assay EC50 Values; HEK293T cell lines; Table 3; cited from earlier work"}, "[7]": {"biological_target": "T1, CB1 receptor", "design": "method as in PMID 26686391", "settings": "read-out: GTPγS Binding Assay Ki Value; Table 2; cited from earlier work"}}, "note": "Read-outs that look alike come from different tables or passages of the source."}
{"compound": "O=C(NC12CC3CC(CC(C3)C1)C2)c1nn(CCCCF)c2ccccc12", "note": "[4F-ABUTINACA]", "values": [{"measurement": "LD50 (acute toxicity)", "setting": "[1]", "value": 11.62, "unit": "mg/kg"}, {"measurement": "effects in the tetrad test", "setting": "[2]", "value": "most pronounced effects"}, {"measurement": "reward potential in the CPP test", "setting": "[3]", "value": "strongest reward potential"}, {"measurement": "Kd", "setting": "[4]; read-out: KD", "value": 20100, "unit": "nM"}]}
{"compound": "C=CCCCn1nc(C(=O)NC(C(=O)OC)C(C)(C)C)c2ccccc21", "note": "(centres unmarked) [MDMB-4en-PINACA]", "values": [{"measurement": "affinity relative to AMB-4en-PICA", "setting": "[5]; ratio of KD values, MDMB-4en-PINACA versus AMB-4en-PICA", "value": "six-fold higher affinity"}]}
{"compound": "CCCCCn1cc(C(=O)c2cccc3ccccc23)c2ccccc21", "note": "[JWH-018]", "values": [{"measurement": "EC50", "setting": "[6]", "value": 36.8, "unit": "nM"}, {"measurement": "effects in the tetrad test", "setting": "[2]", "value": "intermediate"}, {"measurement": "Ki", "setting": "[7]", "value": 3.38, "unit": "nM"}, {"measurement": "reward potential in the CPP test", "setting": "[3]", "value": "intermediate"}, {"measurement": "Kd", "setting": "[4]", "value": 39300, "unit": "nM"}]}
{"compound": "O=C(NC12CC3CC(CC(C3)C1)C2)c1cn(CCCCCF)c2ccccc12", "note": "[STS-135]", "values": [{"measurement": "Ki", "setting": "[7]", "value": 1.93, "unit": "nM"}]}
{"compound": "CCCCCn1nc(C(=O)Oc2cccc3ccccc23)c2ccccc21", "note": "[SDB-005]", "values": [{"measurement": "effects in the tetrad test", "setting": "[2]", "value": "weaker"}, {"measurement": "reward potential in the CPP test", "setting": "[3]", "value": "weaker"}, {"measurement": "Kd", "setting": "[4]; read-out: KD", "value": 53000, "unit": "nM"}]}
{"compound": "CC(C)C(NC(=O)c1nn(CC2CCCCC2)c2ccccc12)C(N)=O", "note": "(centres unmarked) [AB-CHMINACA]", "values": [{"measurement": "EC50", "setting": "[6]", "value": 0.34, "unit": "nM"}]}
{"compound": "O=C(NC12CC3CC(CC(C3)C1)C2)c1nn(CCCCCF)c2ccccc12", "note": "[5F-AKB-48]", "values": [{"measurement": "reduction in the KD value on substitution of parent core from indole to indazole", "setting": "[5]; 5F-AKB-48 versus STS-135", "value": 50, "unit": "%"}, {"measurement": "Ki", "setting": "[7]", "value": 0.87, "unit": "nM"}]}
